The values below come from ChEMBL document CHEMBL4765331, “Amides of pyrrole- and thiophene-fused anthraquinone derivatives: A role of the heterocyclic core in antitumor properties” (Eur J Med Chem, 2020).

One assay has as its system K562. Put plainly: Antiproliferative activity against human K562 cells assessed as inhibition of cell proliferation measured after 72 hrs by MTT assay. The class given is functional, cell-based. Particulars: K562, 72 h. For orientation: Tetrazolium assays rely on reduction of a dye to a coloured formazan, in cell work by metabolically active cells.
The test system of the next assay is HL-60. Put plainly: Antiproliferative activity against human HL-60 cells assessed as inhibition of cell proliferation measured after 72 hrs by MTT assay. The class given is functional, cell-based. Particulars: HL-60, 72 h.
The test system of the next assay is TERT-RPE1. Description: Cytotoxicity against human TERT-RPE1 cells assessed as inhibition of cell proliferation measured after 72 hrs by MTT assay. The class given is cell-based. As to conditions: RPE-1, 72 h.
The subject of a further assay is HCT-116. Description: Antiproliferative activity against human HCT-116 cells assessed as inhibition of cell proliferation measured after 72 hrs by MTT assay. Particulars: HCT-116, 72 h. The class given is functional, cell-based.
Another assay concerns CAPAN-1. Description: Antiproliferative activity against human CAPAN-1 cells assessed as inhibition of cell proliferation measured after 72 hrs by MTT assay. The class given is functional, cell-based. Particulars: CAPAN-1, 72 h.
Another assay concerns NCI-H460. Description: Antiproliferative activity against human NCI-H460 cells assessed as inhibition of cell proliferation measured after 72 hrs by MTT assay. Type of assay: functional, cell-based. Particulars: NCI-H460, 72 h.

pIC50: −log10 of the molar value. A value given as a limit tells only on which side of the number the result lay.

For the molecule `Cc1[nH]c2c(O)c3c(c(O)c2c1C(=O)NC1CCCNC1)C(=O)c1ccccc1C3=O` (stereo not drawn), the negative logarithm of the IC50 (pIC50) with K562 is 5.49; in the assay with HL-60, 5.74; in the assay on TERT-RPE1, 4.90; in the assay on HCT-116, 6.00; in the assay on CAPAN-1 it was 6.40; in the assay with NCI-H460, 6.00.
Regarding `O=C1c2ccccc2C(=O)c2c1c(O)c1scc(C(=O)NC3CCCNC3)c1c2O` (racemic), the negative logarithm of the IC50 (pIC50) was 5.17 in the assay on K562; 5.59 in the assay on HL-60; 5.17 with TERT-RPE1; 5.49 in the assay with HCT-116; 5.92 in the assay with CAPAN-1; 5.57 in the assay on NCI-H460.
For the molecule `Cc1[nH]c2c(O)c3c(c(O)c2c1C(=O)N[C@H]1CCNC1)C(=O)c1ccccc1C3=O`, the negative-log IC50 (pIC50) with K562 was 6.15; in the assay with HL-60, 6.00; in the assay on TERT-RPE1, 4.77; with HCT-116 it was 5.74; in the assay with CAPAN-1, 6.00; in the assay with NCI-H460 it was 5.28.
With `Cc1[nH]c2c(O)c3c(c(O)c2c1C(=O)NC1CCNCC1)C(=O)c1ccccc1C3=O`, the pIC50 in the assay with K562 is 6.40; in the assay with HL-60, 6.70; in the assay with TERT-RPE1, 4.93; in the assay on HCT-116, 5.82; with CAPAN-1, 6.52; in the assay on NCI-H460, 5.96.
Regarding `O=C1c2ccccc2C(=O)c2c1c(O)c1scc(C(=O)N[C@H]3CCNC3)c1c2O`, the pIC50 in the assay on K562 is 6.15; with HL-60, 5.41; in the assay on TERT-RPE1, 4.83; in the assay on HCT-116, 6.05; with CAPAN-1 it was 5.55; in the assay with NCI-H460 it was 5.85.
As for `Cc1[nH]c2c(O)c3c(c(O)c2c1C(=O)N1CCCC(N)C1)C(=O)c1ccccc1C3=O` (stereo not drawn), the pIC50 in the assay with K562 is 6.40; in the assay on HL-60, 6.70; with TERT-RPE1, 4.78; with HCT-116, 5.70; in the assay with CAPAN-1, 5.96; in the assay with NCI-H460, 5.59.
As to `O=C1c2ccccc2C(=O)c2c1c(O)c1scc(C(=O)NC3CCNCC3)c1c2O`, the negative-log IC50 (pIC50) in the assay with K562 was 5.82; with HL-60, 5.80; in the assay with TERT-RPE1, 5.24; in the assay with HCT-116 it was 5.77; in the assay on CAPAN-1, 5.92; in the assay on NCI-H460, 5.92.
`O=C1c2ccccc2C(=O)c2c1c(O)c1scc(C(=O)N[C@@H]3CCNC3)c1c2O`: the pIC50 was 6.30 in the assay on K562; 5.34 in the assay with HL-60; 4.81 in the assay with TERT-RPE1; 6.10 with HCT-116; 5.66 in the assay on CAPAN-1; 5.70 with NCI-H460.
In the case of `CC(=O)Cn1c(C)c(C(=O)N2CC[C@H](N)C2)c2c(O)c3c(c(O)c21)C(=O)c1ccccc1C3=O`, the pIC50 in the assay on K562 was 5.66; in the assay on HL-60, 5.47; in the assay on TERT-RPE1 it was below 4.70; in the assay on HCT-116, 4.77; in the assay on CAPAN-1 it was 4.87; in the assay with NCI-H460 it was 4.79.
Consider `Cc1[nH]c2c(O)c3c(c(O)c2c1C(=O)N1CCC(N)CC1)C(=O)c1ccccc1C3=O`, for which the negative-log IC50 (pIC50) is 5.64 with K562; 6.10 in the assay with HL-60; 4.85 in the assay with TERT-RPE1; 5.85 in the assay with HCT-116; 5.77 in the assay on CAPAN-1; 5.54 with NCI-H460.
For the molecule `NC1CCCN(C(=O)c2csc3c(O)c4c(c(O)c23)C(=O)c2ccccc2C4=O)C1` (racemic), the pIC50 with K562 was 5.89; in the assay on HL-60 it was 5.52; in the assay on TERT-RPE1, 5.10; with HCT-116 it was 6.10; with CAPAN-1, 5.96; in the assay on NCI-H460 it was 5.37.
In the case of `NC1CCN(C(=O)c2csc3c(O)c4c(c(O)c23)C(=O)c2ccccc2C4=O)CC1`, the pIC50 in the assay with K562 is 5.70; in the assay with HL-60, 6.05; in the assay on TERT-RPE1, 4.80; in the assay on HCT-116, 5.72; in the assay with CAPAN-1 it was 6.52; in the assay on NCI-H460, 5.77.
For `Cc1c(C(=O)N2CC[C@H](N)C2)c2c(O)c3c(c(O)c2n1CC(=O)O)C(=O)c1ccccc1C3=O`, the pIC50 with K562 was 4.87; in the assay with HL-60, 4.88; in the assay on TERT-RPE1, below 4.70; in the assay with HCT-116, 4.77; in the assay with CAPAN-1, 4.84; with NCI-H460, 4.70.

A word on the pIC50: it is −log10 of the IC50, conventionally taken in molar units.
